Laboratory results as given in patent publication US6737383B1, “Herbicidal oxadiazolidines” (priority 1999, dated 2004).

Tests used:
[1] = test system: cocklebur; experiment: Test B pre/postemergence cocklebur; assay type: in vivo, Xanthium strumarium
Outline: (§1)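 Response is a visual 0-to-10 score relative to untreated plants, where 0 means no effect and 10 means complete control, taken twelve to sixteen days after application. Treatments went onto soil at planting and onto foliage of 1- to 4-leaf plants, using a surfactant-containing non-phytotoxic solvent.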

[2] = test system: giant foxtail; experiment: Test B pre/postemergence giant foxtail; assay type: in vivo, Setaria faberii
Outline: as §1

[3] = test system: rape; experiment: Test B pre/postemergence rape; assay type: in vivo, Brassica napus
Outline: as §1

[4] = test system: bedstraw; experiment: Test B pre/postemergence bedstraw; assay type: in vivo, Galium aparine; conditions: Preemergence
Outline: as §1

[5] = test system: pigweed; experiment: Test B pre/postemergence pigweed; assay type: in vivo, Amaranthus retroflexus
Outline: as §1

[6] = test system: sugar beet; experiment: Test B pre/postemergence sugar beet; assay type: in vivo, Beta vulgaris
Outline: as §1

[7] = test system: wild oat; experiment: Test B pre/postemergence wild oat; assay type: in vivo, Avena fatua
Outline: as §1

[8] = test system: surinam grass; experiment: Test B pre/postemergence surinam grass; assay type: in vivo, Brachiaria decumbens
Outline: as §1

[9] = test system: velvetleaf; experiment: Test B pre/postemergence velvetleaf; assay type: in vivo, Abutilon theophrasti
Outline: as §1

[10] = test system: blackgrass; experiment: Test B pre/postemergence blackgrass; assay type: in vivo, Alopecurus myosuroides
Outline: as §1

[11] = test system: purple nutsedge; experiment: Test B pre/postemergence purple nutsedge; assay type: in vivo, Cyperus rotundus
Outline: as §1

[12] = test system: soybean; experiment: Test B pre/postemergence soybean; assay type: in vivo, Glycine max
Outline: as §1

[13] = test system: corn; experiment: Test B pre/postemergence corn; assay type: in vivo, Zea mays
Outline: as §1

[14] = test system: crabgrass; experiment: Test B pre/postemergence crabgrass; assay type: in vivo, Digitaria sanguinalis
Outline: as §1

[15] = test system: morningglory; experiment: Test B pre/postemergence morningglory; assay type: in vivo, Ipomoea hederacea
Outline: as §1

[16] = test system: wheat; experiment: Test B pre/postemergence wheat; assay type: in vivo, Triticum aestivum
Outline: as §1

[17] = Preemergence, Rate 62 g/ha, scale of 0 to 10 where 0 is no effect and 10 is complete control
[18] = Preemergence, Rate 125 g/ha, scale of 0 to 10 where 0 is no effect and 10 is complete control
[19] = Preemergence, Rate 250 g/ha, scale 0 to 10 (0 no effect, 10 complete control)
[20] = Preemergence, Rate 500 g/ha, scale of 0 to 10 where 0 is no effect and 10 is complete control
[21] = Rate 62 g/ha, scale of 0 to 10 where 0 is no effect and 10 is complete control
[22] = Rate 125 g/ha, scale of 0 to 10 where 0 is no effect and 10 is complete control
[23] = Rate 500 g/ha, scale of 0 to 10 where 0 is no effect and 10 is complete control
[24] = Postemergence, Rate 62 g/ha, scale 0 to 10, 0 is no effect, 10 is complete control
[25] = Postemergence, Rate 125 g/ha, scale of 0 to 10 where 0 is no effect and 10 is complete control
[26] = Preemergence, Rate 250 g/ha, scale 0 (no effect) to 10 (complete control)
[27] = Rate 250 g/ha, Postemergence, scale 0 to 10, 0 is no effect, 10 is complete control
[28] = Rate 500 g/ha, Postemergence, scale 0 to 10, 0 is no effect, 10 is complete control

## CCn1ncc(Cn2c(=O)on(C(=O)N(c3ccccc3)C(C)C)c2=O)c1Cl [Compound 683]
[1]; [17]
  Cocklebur plant response rating: 0
[1]; [18]
  Plant response rating, Cocklebur: 0
[1]; [19]
  Plant response rating, Cocklebur: 0
[1]; [20]
  Plant response rating, Cocklebur: 0
[2]; [17]
  Giant foxtail plant response rating: 8
[2]; [18]
  Plant response rating, Giant foxtail: 9
[2]; [20]
  Plant response rating, Giant foxtail: 10
[3]; [17]
  Rape plant response rating: 0
[3]; [18]
  Plant response rating, Rape: 0
[3]; [20]
  Plant response rating, Rape: 0
[4]; [21]
  Bedstraw plant response rating: 0
[4]; [22]
  Plant response rating, Bedstraw: 0
[4]; Rate 250 g/ha, scale 0 to 10 (0 no effect, 10 complete control)
  Plant response rating, Bedstraw: 0
[4]; [23]
  Plant response rating, Bedstraw: 0
[5]; [17]
  Redroot pigweed plant response rating: 0
[5]; [18]
  Plant response rating, Redroot pigweed: 2
[5]; [20]
  Plant response rating, Redroot pigweed: 6
[6]; [17]
  Sugarbeets plant response rating: 0
[6]; [18]
  Plant response rating, Sugarbeets: 0
[6]; [20]
  Plant response rating, Sugarbeets: 0
[7]; [17]
  Wild oats plant response rating: 0
[7]; [18]
  Plant response rating, Wild oats: 0
[7]; [20]
  Plant response rating, Wild oats: 8
[8]; [17]
  B. signalgrass plant response rating: 0
[8]; [18]
  Plant response rating, B. signalgrass: 0
[8]; [19]
  Plant response rating, B. signalgrass: 4
[8]; [20]
  Plant response rating, B. signalgrass: 9
[9]; [17]
  Velvetleaf plant response rating: 0
[9]; [18]
  Plant response rating, Velvetleaf: 0
[9]; [20]
  Plant response rating, Velvetleaf: 0
[10]; [17]
  Blackgrass plant response rating: 1
[10]; [18]
  Plant response rating, Blackgrass: 3
[10]; [19]
  Plant response rating, Blackgrass: 7
[10]; [20]
  Plant response rating, Blackgrass: 9
[11]; [17]
  Nutsedge plant response rating: 0
[11]; [18]
  Plant response rating, Nutsedge: 0
[11]; [20]
  Plant response rating, Nutsedge: 0
[12]; [17]
  Soybean plant response rating: 0
[12]; [18]
  Plant response rating, Soybean: 0
[12]; [20]
  Plant response rating, Soybean: 0
[13]; [17]
  Corn plant response rating: 0
[13]; [18]
  Plant response rating, Corn: 0
[13]; [19]
  Plant response rating, Corn: 0
[13]; [20]
  Plant response rating, Corn: 3
[14]; [17]
  Crabgrass plant response rating: 6
[14]; [18]
  Plant response rating, Crabgrass: 8
[14]; [19]
  Plant response rating, Crabgrass: 9
[14]; [20]
  Plant response rating, Crabgrass: 10
[15]; [17]
  Morningglory plant response rating: 0
[15]; [18]
  Plant response rating, Morningglory: 0
[15]; [20]
  Plant response rating, Morningglory: 2
[16]; [17]
  Wheat plant response rating: 0
[16]; [18]
  Plant response rating, Wheat: 0
[16]; [20]
  Plant response rating, Wheat: 0

## CC(C)N(C(=O)n1oc(=O)n(CF)c1=O)c1ccc(F)cc1 [Compound 709]
[1]; [24]
  Plant response rating, Cocklebur: 0
[1]; [25]
  Cocklebur plant response rating: 0
[1]; [17]
  Cocklebur plant response rating: 0
[1]; [18]
  Plant response rating, Cocklebur: 0
[1]; [26]
  Cocklebur plant response rating: 0
[1]; [20]
  Plant response rating, Cocklebur: 0
[1]; [27]
  Cocklebur plant response rating: 0
[1]; [28]
  Cocklebur plant response rating: 3
[2]; [24]
  Plant response rating, Giant foxtail: 3
[2]; [25]
  Giant foxtail plant response rating: 4
[2]; [17]
  Giant foxtail plant response rating: 2
[2]; [18]
  Plant response rating, Giant foxtail: 4
[2]; [26]
  Giant foxtail plant response rating: 7
[2]; [27]
  Giant foxtail plant response rating: 8
[2]; [28]
  Giant foxtail plant response rating: 9
[3]; [24]
  Plant response rating, Rape: 0
[3]; [25]
  Rape plant response rating: 0
[3]; [17]
  Rape plant response rating: 0
[3]; [18]
  Plant response rating, Rape: 0
[3]; [26]
  Rape plant response rating: 0
[3]; [27]
  Rape plant response rating: 0
[3]; [28]
  Rape plant response rating: 0
[4]; [21]
  Bedstraw plant response rating: 0
[4]; [22]
  Plant response rating, Bedstraw: 0
[4]; Rate 250 g/ha, scale 0 (no effect) to 10 (complete control)
  Bedstraw plant response rating: 0
[4]; [23]
  Plant response rating, Bedstraw: 0
[5]; [24]
  Plant response rating, Redroot pigweed: 5
[5]; [25]
  Redroot pigweed plant response rating: 5
[5]; [17]
  Redroot pigweed plant response rating: 0
[5]; [18]
  Plant response rating, Redroot pigweed: 0
[5]; [26]
  Redroot pigweed plant response rating: 5
[5]; [27]
  Redroot pigweed plant response rating: 8
[5]; [28]
  Redroot pigweed plant response rating: 8
[6]; [24]
  Plant response rating, Sugarbeets: 0
[6]; [25]
  Sugarbeets plant response rating: 0
[6]; [17]
  Sugarbeets plant response rating: 0
[6]; [18]
  Plant response rating, Sugarbeets: 0
[6]; [26]
  Sugarbeets plant response rating: 0
[6]; [27]
  Sugarbeets plant response rating: 0
[6]; [28]
  Sugarbeets plant response rating: 0
[7]; [24]
  Plant response rating, Wild oats: 0
[7]; [25]
  Wild oats plant response rating: 0
[7]; [17]
  Wild oats plant response rating: 0
[7]; [18]
  Plant response rating, Wild oats: 0
[7]; [26]
  Wild oats plant response rating: 0
[7]; [27]
  Wild oats plant response rating: 0
[7]; [28]
  Wild oats plant response rating: 0
[8]; [24]
  Plant response rating, B. signalgrass: 0
[8]; [25]
  B. signalgrass plant response rating: 0
[8]; [17]
  B. signalgrass plant response rating: 0
[8]; [18]
  Plant response rating, B. signalgrass: 0
[8]; [26]
  B. signalgrass plant response rating: 0
[8]; [20]
  Plant response rating, B. signalgrass: 0
[8]; [27]
  B. signalgrass plant response rating: 0
[8]; [28]
  B. signalgrass plant response rating: 0
[9]; [24]
  Plant response rating, Velvetleaf: 4
[9]; [25]
  Velvetleaf plant response rating: 4
[9]; [17]
  Velvetleaf plant response rating: 0
[9]; [18]
  Plant response rating, Velvetleaf: 0
[9]; [26]
  Velvetleaf plant response rating: 0
[9]; [27]
  Velvetleaf plant response rating: 4
[9]; [28]
  Velvetleaf plant response rating: 6
[10]; [24]
  Plant response rating, Blackgrass: 0
[10]; [25]
  Blackgrass plant response rating: 0
[10]; [17]
  Blackgrass plant response rating: 0
[10]; [18]
  Plant response rating, Blackgrass: 0
[10]; [26]
  Blackgrass plant response rating: 0
[10]; [20]
  Plant response rating, Blackgrass: 0
[10]; [27]
  Blackgrass plant response rating: 0
[10]; [28]
  Blackgrass plant response rating: 0
[11]; [24]
  Plant response rating, Nutsedge: 0
[11]; [25]
  Nutsedge plant response rating: 0
[11]; [17]
  Nutsedge plant response rating: 0
[11]; [18]
  Plant response rating, Nutsedge: 0
[11]; [27]
  Nutsedge plant response rating: 0
[11]; [28]
  Nutsedge plant response rating: 6
[12]; [24]
  Plant response rating, Soybean: 1
[12]; [25]
  Soybean plant response rating: 3
[12]; [17]
  Soybean plant response rating: 0
[12]; [18]
  Plant response rating, Soybean: 0
[12]; [26]
  Soybean plant response rating: 0
[12]; [27]
  Soybean plant response rating: 3
[12]; [28]
  Soybean plant response rating: 4
[13]; [24]
  Plant response rating, Corn: 0
[13]; [25]
  Corn plant response rating: 0
[13]; [17]
  Corn plant response rating: 0
[13]; [18]
  Plant response rating, Corn: 0
[13]; [26]
  Corn plant response rating: 0
[13]; [27]
  Corn plant response rating: 0
[13]; [28]
  Corn plant response rating: 0
[14]; [24]
  Plant response rating, Crabgrass: 2
[14]; [25]
  Crabgrass plant response rating: 3
[14]; [17]
  Crabgrass plant response rating: 2
[14]; [18]
  Plant response rating, Crabgrass: 3
[14]; [26]
  Crabgrass plant response rating: 7
[14]; [27]
  Crabgrass plant response rating: 6
[14]; [28]
  Crabgrass plant response rating: 8
[15]; [25]
  Morningglory plant response rating: 0
[15]; [17]
  Morningglory plant response rating: 0
[15]; [18]
  Plant response rating, Morningglory: 0
[15]; [26]
  Morningglory plant response rating: 0
[15]; [27]
  Morningglory plant response rating: 2
[15]; [28]
  Morningglory plant response rating: 6
[16]; [24]
  Plant response rating, Wheat: 0
[16]; [25]
  Wheat plant response rating: 0
[16]; [17]
  Wheat plant response rating: 0
[16]; [18]
  Plant response rating, Wheat: 0
[16]; [26]
  Wheat plant response rating: 0
[16]; [27]
  Wheat plant response rating: 0
[16]; [28]
  Wheat plant response rating: 0
